Data from patent US4590063A, “Anticonvulsants” (Adria Laboratories, Inc., priority 1985, dated 1986).

What was measured:
[1] = in vivo; conditions: mouse; for LD50 at 24 h: oral gavage, mice, read-out: Acute (24 hr.) Toxicity Approximate LD50; for safety ratio (LD50/ED50): po, LD50 (24 hr., mice) divided by ED50 (supramaximal electroshock), read-out: Approximate Safety Ratio LD50/ED50
Method: (§1) Male albino ICR-swiss mice fasted for 5-6 hours and weighing 20-26 grams are used in all procedures. The compounds of the Examples 1 and 2 are dissolved in water and administered in dosages of 0.01 cc per gram body weight to groups of twelve mice via oral gavage at the milligrams per kilograms per body weight in the table below. One hour after administration of the compound, the mice are given a transcranal electroshock, 60 hertz, 25 milliamps of 0.2 second duration. This stimulus is approximately 3 times the current required to produce tonic flexion-extension convulsions in 100% of the control mice tested. The animals are then observed, and the number undergoing convulsion noted. When the ED50 is bracketed (at least one dose above and one dose below), an estimate of the ED50 is calculated. The acute LD50 is determined as follows: Groups of four mice each are given selected doses of the test compound and placed in plastic cages with food and water ad lib. Twenty-four hours later, the number of dead mice is noted. When the LD50 is bracketed (at least one dose above and one below) an estimate of the LD50 is calculated. The values for Valproic acid and Dilantin are included in the table for comparison.

[2] = system: tonic flexion-extension convulsions; assay: Supramaximal electroshock antagonism (suppression of convulsions induced in mice by transcranal electroshock); type: in vivo, Male albino ICR-swiss mice; conditions: Mus musculus, oral gavage, 1 hour after administration, 60 hertz, 25 milliamps, 0.2 second, read-out: Supramaximal Electroshock Antagonism Approximate ED50
Method: These examples illustrate the use of the compounds described in Examples 1 and 2 in suppressing convulsions induced in mice by supramaxal shock.
as §1

[3] = Solubility in water and ethyl alcohol; type: physicochemical; conditions: recrystallized product
[4] = treatment of epilepsy, known drug; cited from earlier work

Row | SMILES | LD50 at 24 h [1] | safety ratio (LD50/ED50) [1] | ED50 [2] | solubility in ethyl alcohol [3] | solubility in water [3] | dosage needed to be effective relative to toxic dosage [4] | serious chronic side effects [4]
1 | COc1cc(C(=O)NCCCN(C)C)c(OC)c2ccccc12.Cl [1,4-dimethoxy-N-(3-dimethylaminopropyl)-2-naphthalenecarboxamide hydrochloride] | ~750 mg/kg | ~10 | ~75 mg/kg | sparingly soluble | sparingly soluble |  | 
2 | CCCC(CCC)C(=O)O [Valproic Acid, reference compound] | ~1420 mg/kg |  | ~600 mg/kg |  |  | very close to those which are acutely toxic | 
3 | O=C1NC(=O)C(c2ccccc2)(c2ccccc2)N1 [Dilantin, phenytoin, reference compound] | ~417 mg/kg |  | ~13 mg/kg |  |  |  | megaloblastic anemia and osteomalacia
4 | COc1cc(C(=O)NCCN(C)C)c(OC)c2ccccc12.Cl [1,4-dimethoxy-N-(2-dimethylaminoethyl)-2-naphthalene carboxamide hydrochloride] | ~750 mg/kg | ~17 | ~45 mg/kg | sparingly soluble | sparingly soluble |  | 
